Where two headings read alike, the source gives them in different places.
Assays:
rats [1] = experiment: Anxiolytic activity, social interaction test (method of File); format: in vivo
Source text: 2) Anxiolytic activity. Social interaction test.
This consists in placing a pair of rats in an unknown and strongly lit environment.

[2] = Anxiolytic activity, two-compartment box (method of Crawley); format: in vivo
Source text: 1) Anxiolytic activity. Two-compartment box.
The method used is that of Crawley, J.N.; Pharmacol. Biochem. Behav., 15, 695-699 (1981). This consists of a two-compartment box with different lighting, counting the time of stay and number of entries into the light and dark compartments, the number of lifting movements and the number of lines crossed in each of the two compartments, before and after treatment with the products under study.

mouse = experiment: Antidepressive activity, desperate behaviour induced by enforced swimming, Porsolt test; format: in vivo; details: mice
Method: 3) Antidepressive activity. Desperate behaviour induced in mouse by enforced swimming. Porsolt test.
This consists in subjecting the mice to a swimming test by placing them inside transparent cylinders of set dimensions, with water at a temperature of 20-22°C. After a prior detection test, the time the animal takes to adopt an immobile posture is determined, recording the duration of immobility. The average immobility time of the treated groups is compared with that of the control group.

Acute toxicity = experiment: Acute toxicity; parameters: species or system mice; details: mouse, in vivo
Method: The acute toxicity is determined by different vias in mice.

rats [3] = experiment: Effect on learning and memory, passive avoidance test; format: in vivo
Source text: 4) Effect on learning and memory. Passive avoidance test on rats.
Use is made of the method of Chugh and colls., Eur. J. Pharmacol., 203, 121-123 (1991). This consists in placing the rats in a two-compartment (light and dark) box separated by a door which opens and closes as the experimenter wishes; the floor of both cages is constructed using a metal grid electrifiable as desired in terms of current and duration. The animal is conditioned to avoid the dark zone, and the time of latency in the exposures following the one in which the animals receive the electric shock of 0.2 mA and duration of 3 seconds is determined.

[4] = 0,01 mg/kg i.p., Excipient 158 ± 15
[5] = ip, mice, i.p., read-out: APPROXIMATE DL₅₀

## CN1C(=O)CN=C(c2ccccc2)c2cc(Cl)ccc21 [DIAZEPAM]
Rats [1]; 2 mg/kg i.p., Excipient 158 ± 15
  SOCIAL I[…] (sec ± E.S.): 257 ± 22 s

## O=C1CC2(CCCC2)CC(=O)N1CCCCN1CCN(c2ncccn2)CC1 [BUSPIRONA]
Rats [1]; 0,25 mg/kg i.p., Excipient 158 ± 15
  SOCIAL INTERACTION TIME (sec ± E.S.): 287 ± 19 s
Rats [1]; 1 mg/kg i.p., Excipient 158 ± 15
  SOCIAL INTERACTION TIME (sec ± E.S.): 275 ± 14 s

## CN1[C@@H]2CC[C@H]1C[C@@H](OC(=O)c1c[nH]c3ccccc13)C2 [TROPISETRON]
Rats [1]; [4]
  SOCIAL INTERACTION TIME (sec ± E.S.): 253 ± 10 s
Rats [1]; 0,1 mg/kg i.p., Excipient 158 ± 15
  SOCIAL INTERACTION TIME (sec ± E.S.): 231 ± 26 s
[2]; 10 µg/kg i.p., N 20, same group PRE-EXPOSURE 12,4 ± 3,0
  % TIME IN LIGHT COMPARTMENT (X ± E.S.): 12,3 ± 3,0%

## CN(C)CCCN1c2ccccc2CCc2ccccc21 [[…]]
mouse; 30 mg/kg i.p., Excipient 132,53 ± 8,70
  […] (sec ± E.S.): 71,72 ± 9,82 sec

## Cc1nccn1CC1CCc2c(c3ccccc3n2C)C1=O (stereo not shown) [ONDANSETRON]
Rats [1]; [4]
  SOCIAL INTERACTION TIME (sec ± E.S.): 247 ± 22 s
Rats [1]; 0,05 mg/kg i.p., Excipient 158 ± 15
  SOCIAL INTERACTION TIME (sec ± E.S.): 219 ± 18 s
[2]; 2µg/kg i.p., N 10, same group PRE-EXPOSURE 16,6 ± 3,3
  % TIME IN LIGHT COMPARTMENT (X ± E.S.): 12,3 ± 2,7%
[2]; 4 µg/kg v.o., N 10, same group PRE-EXPOSURE 21,1 ± 8,0
  % TIME IN LIGHT COMPARTMENT (X ± E.S.): 18,7 ± 5,1%
Acute toxicity; ip
  LD50: 7.5 mg/kg

## COc1cc(N)c(Cl)cc1C(=O)NC1CN2CCC1CC2 (stereo not shown) [ZACOPRIDE]
Acute toxicity; [5]
  LD50: 135 mg/kg

## CN1C2CCCC1CC(NC(=O)c1nn(C)c3ccccc13)C2 (stereo not shown) [GRANISETRON]
Rats [3]; 0,1 mg/kg i.p., N 6, Excipient 5,7 ± 1,5
  2nd LATENCY (10'), average ± E.S.: 8,5 ± 1,8
Rats [3]; 0,1 mg/kg i.p., N 6, Excipient 6
  2nd LATENCY (10'), median: 11
Rats [3]; 0,1 mg/kg i.p., N 6, Excipient 7,1 ± 1,6
  1st LATENCY, average ± E.S.: 6,3 ± 1,1
Rats [3]; 0,1 mg/kg i.p., N 6, Excipient 9
  1st LATENCY, median: 8
Rats [3]; 0,1 mg/kg i.p., N 6, Excipient 10,7 ± 4,8
  3rd LATENCY -(24 h), average ± E.S.: 19,0 ± 6,5
Rats [3]; 0,1 mg/kg i.p., N 6, Excipient 21
  3rd LATENCY -(24 h), median: 21
Acute toxicity; [5]
  LD50: 89 mg/kg

## O=Cc1c(N2CCN(Cc3ccc4c(c3)OCO4)CC2)[nH]c2ccccc12 [COMPOUND I, 3-[2-(1-(4'-piperonylpiperazinyl))indolyl]-carboxaldehyde]
Rats [1]; 0,5 mg/kg i.p., Excipient 158 ± 15
  SOCIAL INTERACTION TIME (sec ± E.S.): 235 ± 12 s
Rats [1]; 2 mg/kg v.o., Excipient i.p 158 ± 15
  SOCIAL INTERACTION TIME (sec ± E.S.): 262 ± 17 s
mouse; 0,1 mg/kg i.p., Excipient 89,70 ± 21,7
  IMMOBILITY TIME (sec ± E.S.): 49,4 ± 17,8 sec
mouse; 0,5 mg/kg i.p., Excipient 89,70 ± 21,7
  IMMOBILITY TIME (sec ± E.S.): 31,60 ± 10,2 sec
mouse; 1 mg/kg i.p., Excipient 132,53 ± 8,70
  IMMOBILITY TIME (sec ± E.S.): 59,80 ± 11,00 sec
mouse; 10 mg/kg i.p., Excipient 132,53 ± 8,70
  IMMOBILITY TIME (sec ± E.S.): 136,60 ± 11,26 sec
[2]; 2 µg/kg i.p., N 11, same group PRE-EXPOSURE 10,8 ± 3,6
  % TIME IN LIGHT COMPARTMENT (X ± E.S.): 14,6 ± 7,2%
[2]; 4 µg/kg v.o., N 10, same group PRE-EXPOSURE 14,5 ± 4,0
  % TIME IN LIGHT COMPARTMENT (X ± E.S.): 20,0 ± 5,5%
[2]; 8 µg/kg v.o., N 11, same group PRE-EXPOSURE 24,9 ± 6,8
  % TIME IN LIGHT COMPARTMENT (X ± E.S.): 28,6 ± 8,0%
[2]; 20 µg/kg i.p., N 11, same group PRE-EXPOSURE 10,7 ± 3,5
  % TIME IN LIGHT COMPARTMENT (X ± E.S.): 12,7 ± 6,5%
[2]; 50 µg/kg i.p., N 20, same group PRE-EXPOSURE 22,9 ± 3,1
  % TIME IN LIGHT COMPARTMENT (X ± E.S.): 15,4 ± 4,4%
[2]; 100 µg/kg i.p., N 20, same group PRE-EXPOSURE 15,0 ± 2,0
  % TIME IN LIGHT COMPARTMENT (X ± E.S.): 8,6 ± 3,2%
Rats [3]; 1 mg/kg i.p., N 7, Excipient 5,7 ± 1,5
  2nd LATENCY (10'), average ± E.S.: 3,3 ± 1,4
Rats [3]; 1 mg/kg i.p., N 7, Excipient 6
  2nd LATENCY (10'), median: 4
Rats [3]; 1 mg/kg i.p., N 7, Excipient 7,1 ± 1,6
  1st LATENCY, average ± E.S.: 2,7 ± 0,7
Rats [3]; 1 mg/kg i.p., N 7, Excipient 9
  1st LATENCY, median: 3
Rats [3]; 1 mg/kg i.p., N 7, Excipient 10,7 ± 4,8
  3rd LATENCY -(24 h), average ± E.S.: 23,6 ± 9,0
Rats [3]; 1 mg/kg i.p., N 7, Excipient 21
  3rd LATENCY -(24 h), median: 42
Acute toxicity; [5]
  LD50: > 500 mg/kg
Acute toxicity; po, mice, v.o., read-out: APPROXIMATE DL₅₀
  LD50: > 500 mg/kg

Reference: EP0648766A1, “AGENT ACTING ON THE CENTRAL NERVOUS SYSTEM, METHOD FOR ITS PREPARATION AND PHARMACEUTICAL COMPOSITIONS CONTAINING SUCH AGENT” (VITA-INVEST, S.A., priority 1993, dated 1994)
